# Read-outs that look alike come from different tables or passages of the source.
# Experiments:
# HIV WT integrase = test: Phenosense (PhenoScreen) assay, wild type virus; format: cell-based; settings: Human immunodeficiency virus 1, read-out: Phenosense assay WT activity value
# Text: (§1) Monogram Bioscience' PhenoScreen assay allows the evaluation of integrase inhibitors for activity against a variety of HIV variants. The assay uses virus generated from 2 DNA constructs; one containing the HIV LTR, gag and pol regions, as well as a luciferase reporter gene in place of the viral envelope genes, and a second DNA construct containing the amphotrophic murine leukemia virus (A-MLV) envelope gene required to pseudotype virions and render them capable of entry into a target cell. Viruses generated using these constructs by transfection into a producer cell line such as 293T are capable of one-round of infection only. Successful integration events are directly proportional to the levels of luciferase expression 48-72 h after infection.
# (§2) The viral variants chosen by Avexa Ltd. to screen their in-house integration inhibitors against consist of mutations within the viral integrase enzyme known to confer resistance to a number of known integration inhibitors published in the literature. In particular, the viral variants containing the Q148H/G140S double mutation in integrase, and the N155H/E92Q double mutation in integrase, represent two of the more common viruses identified to arise in patients that are failing treatment with Isentress (Raltegravir, MK-0518).
# (§3) Both the Phenosense assay and the Enzyme assay give substantially the same activity values for any particular compound and enzyme pair. The activity of one compound in one assay can therefore be directly compared to the activity of a second compound in the other assay.
# [1] = tested on: HIV variant Y143R integrase; test: Phenosense (PhenoScreen) assay, Y143R variant; format: cell-based; settings: Human immunodeficiency virus 1, read-out: Phenosense assay Y143R activity value
# Text: as §1, §2, §3
# [2] = tested on: HIV variant E92Q N155H integrase; test: Phenosense (PhenoScreen) assay, E92Q N155H variant; format: cell-based; settings: Human immunodeficiency virus 1, read-out: Phenosense assay E92Q N155H activity value
# Text: as §1, §2, §3
# [3] = tested on: HIV variant G140S Q148H integrase; test: Phenosense (PhenoScreen) assay, G140S Q148H variant; format: cell-based; settings: Human immunodeficiency virus 1, read-out: Phenosense assay G140S Q148H activity value
# Text: as §1, §2, §3
# [4] = tested on: HIV variant T125K F121Y integrase; test: Phenosense (PhenoScreen) assay, T125K F121Y variant; format: cell-based; settings: Human immunodeficiency virus 1, read-out: Phenosense assay T125K F121Y activity value
# Text: as §1, §2, §3
# [5] = tested on: HIV variant T661 S153Y integrase; test: Phenosense (PhenoScreen) assay, T661 S153Y variant; format: cell-based; settings: Human immunodeficiency virus 1, read-out: Phenosense assay T661 S153Y activity value
# Text: as §1, §2, §3
# HIV integrase WT = molecular target: T1, HIV integrase WT (Human immunodeficiency virus type 1 group M subtype B, UniProt P12497); test: Strand transfer assay (enzyme assay), wild type; format: biochemical, HIV-1
# T1 construct: The integrase coding region was then subject to PCR and cloned into a bacterial expression vector; made in house
# Text: (§4) HIV integrase was mutated within a shuttle vector (pGEMNLHE) containing the majority of the HIV-1 gag and pol sequence using site directed mutagenesis to generate integrase sequences that have been published as conferring resistance to published integrase inhibitors. These include, but are not limited to, mutations such as Q148K, Q148H/G140S and N155H/E92Q. The integrase coding region was then subject to PCR and cloned into a bacterial expression vector. The specific introduction of desired mutation(s) was confirmed by sequence analysis. Proteins were expressed, purified and used in strand transfer assays.
# (§5) A strand transfer assay procedure similar to that published (Ovenden et al. Phytochemistry. 2004 December; 65(24):3255-9.) is used. Briefly, 400 ng of the enzyme, wild type or drug resistant mutant, is mixed with the compound to be tested and incubated with 30 nM substrate DNA. The substrate DNA is designed to mimic HIV DNA termini that has undergone 3′ end processing, and consists of the annealed U5 LTR sequence oligonucleotides tagged with Digoxigenin (DIG; 5′-[…]-DIG-3′) or biotin (5′-Bio-[…]-3′) so that each substrate has either a DIG or Bio tag on opposite strands. Reactions are carried out for 1 hr at 37° C. Products generated as a result of strand transfer activity are bound to streptavidin plates and detected using anti-DIG-alkaline phosphatase conjugate and p-nitro phenyl phosphate substrate.
# as §3
# [6] = tested on: HIV-1 reporter virus, wild-type (WT) integrase; test: Luciferase reporter virus infectivity assay, WT; format: cell-based; settings: Human immunodeficiency virus 1, HEK-293T, 48 h, read-out: Luciferase assay results WT (EC50)
# Text: (§6) Infectivity assays using reporter viruses derived from lentiviral vectors capable of a single round of infection were used to determine the activity (EC50) of compounds. The DNA used to generate viruses for infection was the full-length HIV-1 genome which had been envelope-deleted. In addition, a reporter gene (the firefly luciferase gene from Photinus pyralis) was cloned into the nef region of the HIV backbone for ease of assay readout. […]. Culture supernatants containing VSV-G pseudotyped virions were harvested 64 h post transfection, clarified by centrifugation to remove cell debris, and frozen at −70° C. until use.
# (§7) HIV integrase was mutated within a shuttle vector (pGEM) containing the majority of the HIV-1 gag and pol sequence using site-directed mutagenesis to generate sequences that are known to confer resistance to published integrase inhibitors. These include but are not limited to mutations such as Q148H/G140S (in tables 2 and 3 # QHGS), N155H/E92Q (in table 2 # NHEQ), F121Y/T124K (in table 2 FYTK), Y143R (in table 2 # Y143R) and the triple mutant Q148K/G140A/E138A. (in table 2 # QKGAEA). The mutated integrase coding region within the shuttle vector was sequence verified, and then exchanged for the wild-type (WT) coding sequence in the reporter virus DNA backbone.
# (§8) 293T cells were plated out at 12000 cells per well in CellView 96-well cell culture plates (Invitrogen) 16 h prior to compound addition. Compounds were preincubated with cells for 4 h at 37° C. prior to the addition of virus sufficient to generate approximately 10000 Luciferase light units (as measured by the Victor Wallace luminometer) upon assaying using the Bright-Glo™ reagent (Promega) according to the manufacturer's instructions at 48 h post infection.
# [7] = tested on: HIV-1 reporter virus, integrase Q148H/G140S (QHGS); test: Luciferase reporter virus infectivity assay, QHGS mutant; format: cell-based; settings: Human immunodeficiency virus 1, HEK-293T
# Text: as §6, §7, §8
# [8] = tested on: HIV-1 reporter virus, integrase N155H/E92Q (NHEQ); test: Luciferase reporter virus infectivity assay, NHEQ mutant; format: cell-based; settings: Human immunodeficiency virus 1, HEK-293T, read-out: Luciferase assay results NHEQ (EC50)
# Text: as §6, §7, §8
# HIV integrase E92Q/N155H = molecular target: T2, HIV integrase E92Q/N155H (Human immunodeficiency virus type 1 group M subtype B, UniProt P12497, E1239Q/N1302H); test: Strand transfer assay (enzyme assay), E92Q/N155H mutant; format: biochemical, HIV-1
# T2 construct: The integrase coding region was then subject to PCR and cloned into a bacterial expression vector; made in house
# Text: as §4, §5, §3
# [9] = molecular target: T3, HIV integrase G140S/Q148H (Human immunodeficiency virus type 1 group M subtype B, UniProt P12497, G1287S/Q1295H); test: Strand transfer assay (enzyme assay), G140S/Q148H mutant; format: biochemical, HIV-1
# T3 construct: The integrase coding region was then subject to PCR and cloned into a bacterial expression vector; made in house
# Text: as §4, §5, §3
# [10] = read-out: Luciferase assay results QHGS (EC50)
# [11] = read-out: EC50 against the QHGS mutant
compound,measurement,setting,value
Cn1ccn2c(=O)c(O)c(C(=O)NCc3ccc(Cl)c(Cl)c3)nc12,EC50,HIV WT integrase,1 to 100 nM
same,EC50,[1],1 to 100 nM
same,EC50,[2],> 10000 nM
same,EC50,[3],> 10000 nM
same,EC50,[4],1000 to 10000 nM
same,EC50,[5],100 to 1000 nM
same,IC50,HIV integrase WT,100 to 1000 nM
O=C(Cn1ccn2c(=O)c(O)c(-c3ncc(Cc4ccc(F)cc4)s3)nc12)N1CCCCC1,EC50,[6],1 to 100 nM
same,EC50,[7]; [10],> 1000 nM
C[C@H]1CN(C(=O)Cn2ccn3c(=O)c(O)c(-c4ncc(Cc5ccc(Cl)c(Cl)c5)s4)nc23)C[C@H](C)O1,EC50,[6],1 to 100 nM
same,EC50,[7]; [10],100 to 1000 nM
C[C@H]1CN(C(=O)Cn2ccn3c(=O)c(O)c(-c4ncc(Cc5ccc(F)cc5)s4)nc23)C[C@H](C)O1 [drawing 254],EC50,[6],1 to 100 nM
same,EC50,[7]; [10],100 to 1000 nM
same,EC50,[8],100 to 1000 nM
Cn1ccn2c(=O)c(O)c(-c3ncc(Cc4ccc(F)c(Cl)c4)s3)nc12,IC50,HIV integrase WT,1 to 100 nM
same,IC50,HIV integrase E92Q/N155H,100 to 1000 nM
same,IC50,[9],100 to 1000 nM
O=C(Cn1ccn2c(=O)c(O)c(-c3ncc(Cc4ccc(F)cc4)o3)nc12)N1CCCCC1,EC50,HIV WT integrase,1 to 100 nM
same,EC50,[1],100 to 1000 nM
same,EC50,[2],100 to 1000 nM
same,EC50,[3],1000 to 10000 nM
same,EC50,[4],100 to 1000 nM
same,EC50,[5],1 to 100 nM
same,IC50,HIV integrase WT,1 to 100 nM
Cn1ccn2c(=O)c(O)c(C(=O)NCc3ccc(F)cc3)nc12,EC50,HIV WT integrase,100 to 1000 nM
same,EC50,[1],100 to 1000 nM
same,EC50,[2],> 10000 nM
same,EC50,[3],> 10000 nM
same,EC50,[4],> 10000 nM
same,EC50,[5],1000 to 10000 nM
same,IC50,HIV integrase WT,100 to 1000 nM
Cn1ccn2c(=O)c(O)c(-c3ncc(Cc4ccc(Cl)c(Cl)c4)s3)nc12,IC50,HIV integrase WT,1 to 100 nM
same,IC50,HIV integrase E92Q/N155H,100 to 1000 nM
same,IC50,[9],100 to 1000 nM
"O=C(Cn1ccn2c(=O)c(O)c(-c3ncc(Cc4ccc(F)cc4)s3)nc12)N1CC2CCC1C2 (centres unmarked) [Example 185, 1-[2-(2-Aza-bicyclo[2.2.1]hept-2-yl)-2-oxo-ethyl]-7-[5-(4-fluoro-benzyl)-thiazol-2-yl]-6-hydroxy-1H-imidazo[1,2-a]pyrimidin-5-one]",EC50,[7]; [11],1000 to 10000 nM
CN1CCN(C(=O)Cn2ccn3c(=O)c(O)c(-c4ncc(Cc5ccc(F)cc5)s4)nc23)CC1,EC50,[6],100 to 1000 nM
same,EC50,[7]; [10],> 1000 nM
same,EC50,[8],100 to 1000 nM
"CC1CC(C)CN(C(=O)Cn2cc(N3CCCS3(=O)=O)n3c(=O)c(O)c(C(=O)NCc4ccc(F)cc4S(=O)(=O)N(C)C)nc23)C1 (centres unmarked) [Example 187, 1-[2-(3,5-Dimethyl-piperidin-1-yl)-2-oxo-ethyl]-3-(1,1-dioxo-1lambda*6*-isothiazolidin-2-yl)-6-hydroxy-5-oxo-1,5-dihydro-imidazo[1,2-a]pyrimidine-7-carboxylic acid 2-dimethylsulfamoyl-4-fluoro-benzylamide]",EC50,[7]; [11],< 500 nM
"CSCc1cn(CC(=O)N2CC(C)CC(C)C2)c2nc(C(=O)NCc3ccc(Cl)c(Cl)c3)c(O)c(=O)n12 (centres unmarked) [Example 191, 1-[2-(3,5-Dimethyl-piperidin-1-yl)-2-oxo-ethyl]-6-hydroxy-3-methylsulfanylmethyl-5-oxo-1,5-dihydro-imidazo[1,2-a]pyrimidine-7-carboxylic acid 3,4-dichloro-benzylamide]",EC50,[7]; [11],1000 to 10000 nM
C[C@H]1CN(C(=O)Cn2ccn3c(=O)c(O)c(-c4ncc(Cc5ccc(F)c(Cl)c5)s4)nc23)C[C@H](C)O1,EC50,[6],100 to 1000 nM
same,EC50,[7]; [10],100 to 1000 nM
same,EC50,[8],100 to 1000 nM
Cn1ccn2c(=O)c(O)c(-c3ncc(Cc4ccc(F)cc4)s3)nc12,IC50,HIV integrase WT,1 to 100 nM
same,IC50,HIV integrase E92Q/N155H,100 to 1000 nM
same,IC50,[9],1 to 100 nM
"C[C@@H]1C[C@@H](C)CN(C(=O)Cn2ccn3c(=O)c(O)c(-c4ncc(Cc5ccc(F)cc5)s4)nc23)C1 (stereo in doubt) [Example 180, 1-[2-(3,5-Dimethyl-piperidin-1-yl)-2-oxo-ethyl]-7-[5-(4-fluoro-benzyl)-thiazol-2-yl]-6-hydroxy-1H-imidazo[1,2-a]pyrimidin-5-one]",EC50,[7]; [11],500 to 1000 nM
Cn1ccn2c(=O)c(O)c(-c3ncc(Cc4ccc(Cl)cc4)s3)nc12,IC50,HIV integrase WT,1 to 100 nM
same,IC50,HIV integrase E92Q/N155H,100 to 1000 nM
same,IC50,[9],100 to 1000 nM

# — patent US8431581B2, “Imidazopyrimidines and uses thereof” (priority 2008, dated 2013)
